From ChEMBL document CHEMBL1143942, “Deoxygenated phosphorothioate inositol phosphate analogs: synthesis, phosphatase stability, and binding affinity” (Bioorg Med Chem, 2008)
Active and inactive are the calls of the source. The rule behind the calls is not given here.

What was measured:
[1] = Displacement of [3H]Ins(1,4,5)P3 from Ins(1,4,5)P3 receptor in bovine adrenal cortex; type: tissue-based, Bos taurus
[2] = Chemical stability in presence of alkaline phosphatase; type: physicochemical
[3] = Inhibition of alkaline phosphatase

Kd [2] [nM]	SMILES	Kd [1] [nM]	Stability ([2]; isolated protein)	Activity [3]
	O[C@@H]1[C@@H](OP(O)(O)=S)[C@H](OP(O)(O)=S)CC[C@H]1OP(O)(O)=S	810	Stable	inactive
54	O=P(O)(O)O[C@@H]1[C@H](O)[C@H](O)[C@@H](OP(=O)(O)O)[C@H](OP(=O)(O)O)[C@H]1O [INS(1,4,5)P3]			
